Numbered stars: 1 amine (or outer) side, 2 acyl side, 3 side chain; on linkers, the order of the positions; unused ones are H or OH. Square brackets hold non-standard residues; d marks the D form. Peptide text beside a SMILES is read from it. X2 = O=C([C@H](Cc1cn(CCCCCCCCc2ccccc2)c2ccccc12)N[*:1])[*:2]; X1 = O=C([C@H](Cc1cn(CCCCCCCCc2ccccc2)cn1)N[*:1])[*:2]; pT = C[C@@H](OP(=O)(O)O)[C@H](N)C(=O)O

The target in the assay is Plk1 PBD (Homo sapiens, UniProt P53350). In words: ELISA-based Plk1 PBD-binding inhibition assay. (In general: ELISA stands for enzyme-linked immunosorbent assay.)
Plk1 PBD, sequence (P53350 whole entry): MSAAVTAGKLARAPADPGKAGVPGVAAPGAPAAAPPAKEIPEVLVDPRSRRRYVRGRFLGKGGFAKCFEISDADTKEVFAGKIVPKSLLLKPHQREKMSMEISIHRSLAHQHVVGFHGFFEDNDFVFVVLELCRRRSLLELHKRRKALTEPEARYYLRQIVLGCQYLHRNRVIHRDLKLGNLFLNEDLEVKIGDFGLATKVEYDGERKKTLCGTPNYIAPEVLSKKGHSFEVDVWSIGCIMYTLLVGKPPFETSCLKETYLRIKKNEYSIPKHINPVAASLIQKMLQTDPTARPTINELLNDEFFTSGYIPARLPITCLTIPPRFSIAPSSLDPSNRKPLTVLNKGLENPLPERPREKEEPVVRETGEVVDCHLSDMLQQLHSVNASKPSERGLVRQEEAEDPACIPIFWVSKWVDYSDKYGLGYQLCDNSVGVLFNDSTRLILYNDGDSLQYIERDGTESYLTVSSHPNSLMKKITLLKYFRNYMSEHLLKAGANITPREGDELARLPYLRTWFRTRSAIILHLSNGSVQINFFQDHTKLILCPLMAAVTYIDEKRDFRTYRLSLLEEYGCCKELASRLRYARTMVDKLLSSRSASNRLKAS

With `CC(=O)N1CCC[C@H]1C(=O)N[C@@H](CC(C)C)C(=O)N[C@@H](Cc1cn(CCCCCCCCc2ccccc2)c2ccccc12)C(=O)N[C@@H](CO)C(=O)N[C@H](C(N)=O)[C@@H](C)OP(=O)(O)O` [1d] (Ac-PL[X2]S[pT]-NH2; N-terminus and C-terminus assumed), the “fold less affinity than 1c” value (ratio of IC50 relative to 1c) is “approximately 30 fold”.
As for `CC(=O)N1CCC[C@H]1C(=O)N[C@@H](CC(C)C)C(=O)N[C@@H](Cc1cn(CCCCCCCCc2ccccc2)cn1)C(=O)N[C@@H](CO)C(=O)N[C@H](C(N)=O)[C@@H](C)OP(=O)(O)O` [1c] (Ac-PL[X1]S[pT]-NH2; N-terminus and C-terminus assumed), for the setting “ratio of IC50 relative to 1b”, the “fold less affinity than 1b” value was “approximately 50 fold”.
PLHST [reference compound]: the “affinity of non-phosphorylated control peptide” value (even at the highest concentration tested (300 μM)) was “negligible affinity”.

Source of the values: PMC3530200 (Bioorganic & medicinal chemistry letters, 2012).
